Experimental data taken from patent US20100130452A1, “Use of Doxycycline in the Treatment of Idiopathic Pulmonary Fibrosis” (NATIONAL RESEARCH DEVELOPMENT CORPORATION, priority 2007, published 2010).

Experiments:
[1] = system: Idiopathic Pulmonary Fibrosis patients; assay: Response to treatment with only doxycycline (case reports); format: in vivo, human
Source text: Example 1 Response to Treatment with Only Doxycycline […]

[2] = system: patients (periodontal disease, malaria prevention, Pulmonary Capillary Hemangiomatosis, Q fever endocarditis); settings: in vivo; cited from earlier work
[3] = system: suspected IPF patients; settings: human, in vivo
[4] = system: IPF patients; settings: cited from earlier work
[5] = Case 2, 01 Oct. 2007 (earlier date, baseline)
[6] = Case 2, 09 Jan. 2008, on doxycycline 100 mg twice a day for over 3 months
[7] = Case 4, 10 Jan. 2004 (earlier date, baseline)
[8] = Case 4, 20 Aug. 2004, after doxycycline for over 7 months

Molecule: C[C@H]1c2cccc(O)c2C(=O)C2=C(O)[C@]3(O)C(=O)C(C(N)=O)=C(O)[C@@H](N(C)C)[C@@H]3[C@@H](O)[C@@H]21 [doxycycline]
- 6 minute Walking distance [1, 5]: 980 ft
- FVC [1, 5]: 1.66 L
- 6 minute Walking distance [1, 6]: 1155 ft
- FVC [1, 6]: 1.92 L
- FEV1 [1, 7]: 1.15
- FVC [1, 7]: 2.12
- TLCO(%) [1, 7]: 49.4%
- TLCO/VA [1, 7]: 102.6
- VA [1, 7]: 3.76
- FVC ([1]; Case 4, 20 Aug. 2004, after doxycycline 100 mg twice a day for over 7 months): 2.45
- FEV1 [1, 8]: 1.51
- TLCO(%) [1, 8]: 58.9%
- TLCO/VA [1, 8]: 127.9
- VA [1, 8]: 3.59
- Harm in long-term use (ACMP conclusion) [2]: no evidence of harm
- Tolerability in Pulmonary Capillary Hemangiomatosis with atypical endotheliomatosis [2]: without any problem
- Intolerance or adverse reaction [3]: no intolerance or adverse reaction
- Tolerability [3]: well tolerated

Molecule: Cc1ccc(=O)n(-c2ccccc2)c1 [Pirfinidone]
- Tolerability ([4]; in vivo): well tolerated

Molecule: COc1cc2c(c(OC)c1OC)-c1ccc(OC)c(=O)cc1[C@@H](NC(C)=O)CC2 [colchicines]
- Benefit of antifibrotic therapy in IPF ([4]; in vivo): did not show any significant benefit

Molecule: doxycycline hyclate [doxycycline hyclate (Periostat)]
- Safety in clinical studies [2]: safe

Molecule: CC(C)(S)[C@@H](N)C(=O)O [D-penicillamine]
- Benefit of antifibrotic therapy in IPF ([4]; in vivo): did not show any significant benefit

B1: Interferon gamma-1b: a down regulator to TGFβ (protein, UniProt P01579 24-161, looked up)
Interferon gamma: QDPYVKEAENLKKYFNAGHSDVADNGTLFLGILKNWKEESDRKIMQSQIVSFYFKLFKNFKDDQSIQKSVETIKEDMNVKFFNSNKKKRDDFEKLTNYSVTDLNVQRKAIHELIQVMAELSPAAKTGKRKRSQMLFRG
- Lung volume, gas exchange and symptoms ([4]; one year study): increase
- Efficacy in IPF ([4]; recent double blind controlled trial): ruled out its efficacy
